Here are results for six molecules from patent US10722483B2, “Treatment of NAFLD and NASH” (CymaBay Therapeutics, Inc., priority 2014, dated 2020).

Like-named read-outs stand apart in the source and are kept apart here. Some results are limits rather than exact numbers.

For series [1] the following is noted: cited from earlier work.
The conditions of series [2]: NAFLD/NASH; cited from earlier work.
Series [3] is described as follows: Example: subjects with NAFLD or NASH treated with MBX-8025 for 6 months. The class given is in vivo, human. Particulars: 50 or 100 mg/day for 6 months. How it is done: Subjects are permitted their usual other medications (e.g. antidiabetic medications such as metformin or […]) but not glitazones, PPAR agonists, OCA, or similar medications. […] At each visit, after a 12-hour fast, blood is drawn and urine collected; and a standard metabolic panel, complete blood count, and standard urinalysis are performed. Blood is analyzed for total cholesterol, HDL-C, LDL-C, VLDL-C, TGs, apoB, and liver transaminases. The subjects also maintain health diaries, which are reviewed at each visit.

Series [4] deals with T1, PPARα (Homo sapiens, UniProt Q07869).
T1 sequence (Q07869 1-468): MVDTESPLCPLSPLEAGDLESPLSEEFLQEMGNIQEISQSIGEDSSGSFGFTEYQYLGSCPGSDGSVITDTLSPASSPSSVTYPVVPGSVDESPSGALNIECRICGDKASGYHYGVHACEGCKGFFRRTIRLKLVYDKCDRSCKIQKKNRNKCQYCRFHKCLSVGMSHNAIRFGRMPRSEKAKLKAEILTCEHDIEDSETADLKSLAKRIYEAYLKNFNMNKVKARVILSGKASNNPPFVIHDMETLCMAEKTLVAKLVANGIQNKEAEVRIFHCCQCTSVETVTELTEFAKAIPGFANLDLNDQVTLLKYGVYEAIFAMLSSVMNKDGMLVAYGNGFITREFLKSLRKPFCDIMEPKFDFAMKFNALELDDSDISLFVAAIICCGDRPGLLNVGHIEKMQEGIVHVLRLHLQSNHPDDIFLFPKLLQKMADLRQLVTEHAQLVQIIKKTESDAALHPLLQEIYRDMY
Description: Specificity of MBX-8025 compared with PPARα. The format is biochemical.

For series [5] the following is noted: genetically obese ob/ob mice; cited from earlier work.
For series [6] the following is noted: healthy subjects, cited from earlier work.
The conditions of series [7]: development discontinued; cited from earlier work.
For series [8] the following is noted: dyslipidemic subjects with abdominal obesity; cited from earlier work.
For series [9] the following is noted: normal mice; cited from earlier work.
For series [10] the following is noted: both women and men; cited from earlier work.
The conditions of series [11]: 80 mg/day or placebo, NASH patients; cited from earlier work.
The conditions of series [12]: cited from earlier work. The source holds these as a separate data set.
For series [13] the following is noted: rodent models of NAFLD/NASH; cited from earlier work.

Turning to `CC(C)c1c(C(=O)Nc2ccccc2)c(-c2ccccc2)c(-c2ccc(F)cc2)n1CC[C@@H](O)C[C@@H](O)CC(=O)O` [atorvastatin], the “reduction (decrease) of LDL-S/VS” value in series [1] (8 weeks) is given as 25%.
With `CCCCCCCCCCC[C@@H](C[C@@H]1OC(=O)[C@H]1CCCCCC)OC(=O)[C@H](CC(C)C)NC=O` [orlistat], the “benefit compared to weight loss alone (diet and exercise)” value in [2] is reported as “no significant benefit”.
`CCO[C@H](COc1ccc(C(F)(F)F)cc1)CSc1ccc(OCC(=O)O)c(C)c1` [MBX-8025, (R)-2-(4-((2-ethoxy-3-(4-(trifluoromethyl)phenoxy)propyl)-thio)-2-methylphenoxy)acetic acid]: the “improvement in disease as manifested by MRI and liver biopsy” value in [3] is “dose-related improvement”. Moreover, in series [1] (100 mg/day), the “reduction in LDL-C in the tertile with the highest starting LDL-C levels (187-205 mg/dL)” value is recorded as 35% and the “reduction of LDL-C over the total population treated” value is given as 22%. The “reduction (decrease) of LDL-S/VS” value in series [1] (8 weeks) is given as 40-48%. Besides, in series [1] (MBX-8025 50 or 100 mg alone and in combination with atorvastatin 20 mg, 8 weeks, P<0.05), the “reduction of apoB100 compared to placebo” value was 20-38%. Moreover, the “raise of HDL-C” value in [1] (MBX-8025 alone and in combination with atorvastatin, 8 weeks) is reported as 1-12%. In addition, the “insulin sensitivity (HOMA-IR, fasting plasma glucose, and insulin)” value in [1] (in vivo) is given as “increases insulin sensitivity”. Besides, the “specificity for PPARδ compared with PPARα receptor” value in [4] is over 600 fold.
Take `Cc1cc(SCc2sc(-c3ccc(C(F)(F)F)cc3)nc2C)ccc1OCC(=O)O` [GW510516]: the “diabetes (glucose and insulin levels)” value in series [5] is “markedly improved”. Also, the “reduction in hepatic fat” value in series [6] (one of the Phase 1 studies) is on record as 20%. The “TGs, LDL-C, apoB, and insulin levels” value in series [6] (two Phase 1 studies) was “reduce”. Moreover, the “association with cancers in animal studies” value in [7] is “rapid development of cancers in several organs”. Besides, in series [8], the “decrease in fasting TGs” value was 30%, the “decrease in fasting insulin” value is listed as 11%, the “reduction in LDL-C” value is reported as 23% and the “reduction in apoB” value is 26%. Also, in series [8], the “reduction in fasting non-esterified fatty acids” value is recorded as 40% and the “reduction in hepatic fat” value is listed as 20%. Besides, the “diet-induced obesity and insulin resistance” value in series [9] is listed as “ameliorated”.
As for `CCc1ccc(CCOc2ccc(CC3SC(=O)NC3=O)cc2)nc1` (centres unmarked) [pioglitazone], the “risk of weight gain, edema, congestive heart failure, and osteoporotic fractures” value in series [10] is “significantly increased risk”.
On to `CSc1ccc(C(=O)/C=C/c2cc(C)c(OC(C)(C)C(=O)O)c(C)c2)cc1` [GFT505], for which, in series [11], the “interim safety analysis at 6 months” value is reported as “no safety issue”. The “liver dysfunction markers including ALT, ALP and GGT” value in series [12] (clinical studies) is “decrease”. Also, the “lipid-modifying efficacy (reduction in TGs, non-HDL-C, total cholesterol, LDL-C, apoB; increases in HDL-C)” value in series [12] (healthy subjects and patients with T2DM, abdominal obesity, dyslipidemia, pre-diabetes, insulin resistance) is “confirmed”. Besides, in series [13], the “hepatic steatosis, inflammation, fibrosis and liver dysfunction markers” value is listed as “decreased”.
